# Test results from PubChem BioAssay AID1845212 (Molecular Pharmacology Branch, DTP, NCI, 2023).
# Values joined by “and” are separate entries in the source; they are usually repeats but may differ in a detail not shown here. Equal entries are not always repeated.
# System: NCI-H719 tumor spheroids, viability
# Assay: Anticancer human tumor NCI-H719 cell line growth inhibition;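 also: spheroids exposed to compounds for seven days; percent viability relative to DMSO vehicle control as 100%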
# Conditions: compound 94.9 pM; stronger effect = lower value; spheroids with HUVEC and MSC
# Source text: Multicellular complex tumor spheroid response to DNA repair inhibitors in combination with DNA-damaging drugs
# This study explores the anticancer activities of DNA-damaging drugs and inhibitors of DNA damage repair, both as single agents and in combinations. Complex tumor spheroids comprised of malignant cells, endothelial cells and mesenchymal stem cells served as an in vitro model for human solid tumors. This model system incorporates physiologically relevant features and patient-derived or established malignant cell lines with clinically relevant genetic alterations from many tumor types. Twenty-six patient-derived or established malignant cell lines were evaluated representing sarcoma, melanoma, small cell lung cancer (SCLC), non-small cell lung cancer (NSCLC), as well as bladder, ovarian and pancreatic cancers. The concentration ranges selected for each drug and investigational agent were based upon clinically achievable concentrations if the clinical Cmax of the agent was known.
# Compounds. The drugs and compounds olaparib (NSC753686), talazoparib (NSC767125), berzosertib (NSC777718), elimusertib (NSC800525), nedisertib (NSC802822), VX-984 (NSC792969), AZD-1390 (NSC803789), temozolomide (NSC362856), topotecan (NSC609699), trabectedin (NSC813783), staurosporine (NSC755774), and gemcitabine (NSC613327) were obtained from the National Cancer Institute (NCI) Developmental Therapeutics Program Chemical Repository. The FDA-approved anticancer drug set is available from the Developmental Therapeutics Program at https://dtp.cancer.gov/organization/dscb/obtaining/available_plates.htm. […] The stock solutions were prepared in dimethyl sulfoxide (DMSO, Sigma-Aldrich, St. Louis, MO, cat. D2650) at 400-fold the tested concentration and stored at -70 degrees C. Prior to their use, the stock solutions were diluted in fresh medium and the final DMSO concentration in the assay was 0.25% (v/v). All drugs and investigational agents were tested over a range starting from a high concentration at or near the clinical Cmax and decreasing in half-log increments. If the clinical Cmax for an agent had not been determined, the highest concentration tested was 10 microM.
# Cell Lines. The patient-derived cancer cell (PDC) lines: 156681-154-R-J1-PDC, 283228-195-R-J1-PDC, 287954-098-R-J1-PDC, 292921-168-R-J2-PDC, 349418-098-R-PDC, 425362-245-T-J1-PDC, 556581-035-R-J1-PDC, and BL0293-F563-PDC were received from the NCI Patient-Derived Models Repository (PDMR, https://pdmr.cancer.gov). The established cell lines HS-SY-2 (RRID:CVCL_8719), MPNST, and SYO-1 (RRID:CVCL_7146) were obtained from the Sloan Kettering Institute. The alveolar soft parts sarcoma cell line ASPS-1 (RRID:CVCL_S738) was established at the NCI and grown from internal seed stocks. The following established cell lines were purchased from the American Type Culture Collection (ATCC, Manassas, VA): G-401 (ATCC, cat. CRL-1441, RRID:CVCL_0270), SW982 (ATCC, cat. HTB-93, RRID:CVCL_1734), VA-ES-BJ (ATCC, cat. CRL-2138, RRID:CVCL_1785), NCI-H719 (ATCC, cat. CRL-5837, RRID:CVCL_1582), NCI-H196 (ATCC, cat. CRL-5823, RRID:CVCL_1509), NCI-H841 (ATCC, cat. CRL-5845, RRID:CVCL_1595), NCI-H1618 (ATCC, cat. CRL-5879, RRID:CVCL_1480), NCI-H1876 (ATCC, cat. CRL-5902, RRID:CVCL_1503), DMS 114 (ATCC, cat. CRL-2066; RRID:CVCL_1174), NCI-H211 (ATCC, cat. CRL-5824; RRID:CVCL_1529), and SW 1271 (ATCC, cat. CRL-2177, RRID:CVCL_1716). The small cell lung cancer cell line COR-L88 was purchased from Sigma-Aldrich (cat. 92031917-1VL, RRID:CVCL_1141). The non-small cell lung cancer cell lines NCI-H226 (RRID:CVCL_1544) and NCI-H322M (RRID:CVCL_1557) were established at the NCI and grown from internal seed stocks. Pooled donor human umbilical vein endothelial cells (HUVEC, Lonza, cat. CC-2519) and human mesenchymal stem cells (hMSC, Lonza, cat. PT-2501) were purchased from Lonza (Walkersville, MD).
# Cell Culture. All cells were maintained in an incubator at 37 degrees C and 5% CO2 with 95% humidity. […]
row,SMILES,"viability, T/C"
1,COc1cc2c(cc1O)CCNC21CSC2c3c(OC(C)=O)c(C)c4c(c3C(COC1=O)N1C(O)C3Cc5cc(C)c(OC)c(O)c5C(C21)N3C)OCO4 (stereo not given),36.8% [middle of 10 runs]

# Same assay, conditions: compound 0.0003 µM; stronger effect = lower value; spheroids with HUVEC and MSC
row,SMILES,"viability, T/C"
1,COc1cc2c(cc1O)CCNC21CSC2c3c(OC(C)=O)c(C)c4c(c3C(COC1=O)N1C(O)C3Cc5cc(C)c(OC)c(O)c5C(C21)N3C)OCO4 (stereo not given),8.36% [middle of 10 runs]

# Same assay, conditions: compound 0.000949 µM; stronger effect = lower value; spheroids with HUVEC and MSC
row,SMILES,"viability, T/C"
1,COc1cc2c(cc1O)CCNC21CSC2c3c(OC(C)=O)c(C)c4c(c3C(COC1=O)N1C(O)C3Cc5cc(C)c(OC)c(O)c5C(C21)N3C)OCO4 (stereo not given),7.96% [middle of 10 runs]

# Same assay, conditions: compound 0.003 µM; stronger effect = lower value; spheroids with HUVEC and MSC
row,SMILES,"viability, T/C"
1,CC[C@@]1(O)C(=O)OCc2c1cc1n(c2=O)Cc2cc3c(CN(C)C)c(O)ccc3nc2-1,44.5% [middle of 10 runs]
2,COc1cc2c(cc1O)CCNC21CSC2c3c(OC(C)=O)c(C)c4c(c3C(COC1=O)N1C(O)C3Cc5cc(C)c(OC)c(O)c5C(C21)N3C)OCO4 (stereo not given),0.83% [middle of 9 runs]

# Same assay, conditions: compound 0.00949 µM; stronger effect = lower value; spheroids with HUVEC and MSC
row,SMILES,"viability, T/C"
1,CC[C@@]1(O)C(=O)OCc2c1cc1n(c2=O)Cc2cc3c(CN(C)C)c(O)ccc3nc2-1,6.14% [middle of 10 runs]
2,CNCc1ccc(-c2cc(-c3nc(-c4ccc(S(=O)(=O)C(C)C)cc4)cnc3N)on2)cc1,96.3% and 108% and 109%
3,Cc1sc2c(c1C)C(c1ccc(Cl)cc1)=NC(CC(=O)Nc1ccc(O)cc1)c1nnc(C)n1-2 (stereo not given),95.3% and 98.3% and 94.6%
4,Cn1ncnc1[C@H]1c2n[nH]c(=O)c3cc(F)cc(c23)N[C@@H]1c1ccc(F)cc1,14.8% and 59.6% and 24.1%

# Same assay, conditions: compound 0.03 µM; stronger effect = lower value; spheroids with HUVEC and MSC
row,SMILES,"viability, T/C"
1,CC[C@@]1(O)C(=O)OCc2c1cc1n(c2=O)Cc2cc3c(CN(C)C)c(O)ccc3nc2-1,5.56% [middle of 10 runs]
2,CNCc1ccc(-c2cc(-c3nc(-c4ccc(S(=O)(=O)C(C)C)cc4)cnc3N)on2)cc1,103% (2×) and 107%
3,Cc1sc2c(c1C)C(c1ccc(Cl)cc1)=NC(CC(=O)Nc1ccc(O)cc1)c1nnc(C)n1-2 (stereo not given),95.8% and 95.1% and 102%
4,Cn1ncnc1[C@H]1c2n[nH]c(=O)c3cc(F)cc(c23)N[C@@H]1c1ccc(F)cc1,8.09% and 8.06% and 12.8%

# Same assay, conditions: compound 0.0316 µM; stronger effect = lower value; spheroids with HUVEC and MSC
row,SMILES,"viability, T/C"
1,CC(C)n1c(=O)n(C)c2cnc3cc(F)c(-c4ccc(OCCCN5CCCCC5)nc4)cc3c21,82.1% and 106% and 81.7%
2,CC1COCCN1c1cc(-c2ccnn2C)c2ccnc(-c3ccn[nH]3)c2n1 (stereo not given),59.9% and 73.9% and 62.1%
3,COc1cc(C)[nH]c(=O)c1CN1CCc2c(Cl)cc(C(OC)C3COC3)c(Cl)c2C1=O (stereo not given),100% and 103% and 101%
4,COc1ccc([C@@H](O)c2cc(-c3ncnc4cc(N5CCOCC5)ccc34)c(F)cc2Cl)nn1,103% and 90.6% and 75%
5,Cc1cc(C)c(CNC(=O)c2cc(-c3ccc(CN4CCOCC4)cc3)cc3c2cnn3C2CCCC2)c(=O)[nH]1,80.8% and 102% and 115%
6,[2H]c1nc(C)nc([2H])c1-c1cc(NC[C@@H](C)c2cccc3c(C(=O)NC)ccnc23)ncn1,94% and 100% and 109%

# Same assay, conditions: compound 0.0949 µM; stronger effect = lower value; spheroids with HUVEC and MSC
row,SMILES,"viability, T/C"
1,CC[C@@]1(O)C(=O)OCc2c1cc1n(c2=O)Cc2cc3c(CN(C)C)c(O)ccc3nc2-1,6.96% [middle of 10 runs]
2,CNCc1ccc(-c2cc(-c3nc(-c4ccc(S(=O)(=O)C(C)C)cc4)cnc3N)on2)cc1,57.4% and 81.5% and 93.3%
3,Cc1sc2c(c1C)C(c1ccc(Cl)cc1)=NC(CC(=O)Nc1ccc(O)cc1)c1nnc(C)n1-2 (stereo not given),47.7% and 63.8% and 60.6%
4,Cn1ncnc1[C@H]1c2n[nH]c(=O)c3cc(F)cc(c23)N[C@@H]1c1ccc(F)cc1,6.33% and 7.52% and 10%
5,O=C(c1cc(Cc2n[nH]c(=O)c3ccccc23)ccc1F)N1CCN(C(=O)C2CC2)CC1,90.1% and 105% and 85.6%

# Same assay, conditions: compound 0.1 µM; stronger effect = lower value; spheroids with HUVEC and MSC
row,SMILES,"viability, T/C"
1,CC(C)n1c(=O)n(C)c2cnc3cc(F)c(-c4ccc(OCCCN5CCCCC5)nc4)cc3c21,93.8% and 98.1% and 94.4%
2,CC1COCCN1c1cc(-c2ccnn2C)c2ccnc(-c3ccn[nH]3)c2n1 (stereo not given),60.1% and 43.6% and 50.1%
3,COc1cc(C)[nH]c(=O)c1CN1CCc2c(Cl)cc(C(OC)C3COC3)c(Cl)c2C1=O (stereo not given),102% and 75.5% and 111%
4,COc1ccc([C@@H](O)c2cc(-c3ncnc4cc(N5CCOCC5)ccc34)c(F)cc2Cl)nn1,109% and 83.6% and 83.3%
5,Cc1cc(C)c(CNC(=O)c2cc(-c3ccc(CN4CCOCC4)cc3)cc3c2cnn3C2CCCC2)c(=O)[nH]1,83.4% and 99.2% and 117%
6,[2H]c1nc(C)nc([2H])c1-c1cc(NC[C@@H](C)c2cccc3c(C(=O)NC)ccnc23)ncn1,99.8% and 100% and 112%

# Same assay, conditions: compound 0.3 µM; stronger effect = lower value; spheroids with HUVEC and MSC
row,SMILES,"viability, T/C"
1,CC[C@@]1(O)C(=O)OCc2c1cc1n(c2=O)Cc2cc3c(CN(C)C)c(O)ccc3nc2-1,7.47% [middle of 10 runs]
2,CNCc1ccc(-c2cc(-c3nc(-c4ccc(S(=O)(=O)C(C)C)cc4)cnc3N)on2)cc1,41.9% and 37.8% and 43.2%
3,Cc1sc2c(c1C)C(c1ccc(Cl)cc1)=NC(CC(=O)Nc1ccc(O)cc1)c1nnc(C)n1-2 (stereo not given),22.9% and 31% and 24.5%
4,Cn1ncnc1[C@H]1c2n[nH]c(=O)c3cc(F)cc(c23)N[C@@H]1c1ccc(F)cc1,6.84% and 6.92% and 9.12%
5,O=C(c1cc(Cc2n[nH]c(=O)c3ccccc23)ccc1F)N1CCN(C(=O)C2CC2)CC1,61.4% and 93.6% and 95.1%

# Same assay, conditions: compound 0.316 µM; stronger effect = lower value; spheroids with HUVEC and MSC
row,SMILES,"viability, T/C"
1,CC(C)n1c(=O)n(C)c2cnc3cc(F)c(-c4ccc(OCCCN5CCCCC5)nc4)cc3c21,116% and 107% and 117%
2,CC1COCCN1c1cc(-c2ccnn2C)c2ccnc(-c3ccn[nH]3)c2n1 (stereo not given),23.8% and 26.8% and 29.1%
3,COc1cc(C)[nH]c(=O)c1CN1CCc2c(Cl)cc(C(OC)C3COC3)c(Cl)c2C1=O (stereo not given),108%
4,COc1ccc([C@@H](O)c2cc(-c3ncnc4cc(N5CCOCC5)ccc34)c(F)cc2Cl)nn1,79.3% and 76.5% and 84.2%
5,Cc1cc(C)c(CNC(=O)c2cc(-c3ccc(CN4CCOCC4)cc3)cc3c2cnn3C2CCCC2)c(=O)[nH]1,84.8% and 97.1% and 111%
